Reference: ChEMBL document CHEMBL3352415, “Synthesis and biological evaluation of novel thiadiazole amides as potent Cdc25B and PTP1B inhibitors” (Bioorg Med Chem Lett, 2014)
pIC50: −log10 of the molar value. Calls of active or inactive are those of the source. The rule behind the calls is not given here.

Tests used:
[1] = target: T1, M-phase inducer phosphatase 2 (Homo sapiens, UniProt P30305); assay: Inhibition of Cdc25B (unknown origin)
T1 sequence (P30305 whole entry): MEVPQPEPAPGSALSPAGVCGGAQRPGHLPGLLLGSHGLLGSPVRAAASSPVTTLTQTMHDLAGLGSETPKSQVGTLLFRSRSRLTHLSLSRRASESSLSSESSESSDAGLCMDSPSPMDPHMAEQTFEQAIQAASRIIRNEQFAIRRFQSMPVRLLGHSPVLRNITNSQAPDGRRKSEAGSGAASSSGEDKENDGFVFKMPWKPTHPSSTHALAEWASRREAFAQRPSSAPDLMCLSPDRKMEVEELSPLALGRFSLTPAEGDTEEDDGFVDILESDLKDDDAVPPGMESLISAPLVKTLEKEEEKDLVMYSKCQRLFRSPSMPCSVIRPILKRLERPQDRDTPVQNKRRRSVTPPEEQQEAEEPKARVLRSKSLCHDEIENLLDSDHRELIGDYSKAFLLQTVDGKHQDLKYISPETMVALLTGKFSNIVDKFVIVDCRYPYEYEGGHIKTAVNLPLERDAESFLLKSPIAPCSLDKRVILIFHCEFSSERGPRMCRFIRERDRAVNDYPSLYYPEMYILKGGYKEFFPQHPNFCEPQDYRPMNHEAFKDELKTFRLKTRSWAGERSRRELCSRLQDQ

[2] = target: T2, M-phase inducer phosphatase 2 (Homo sapiens) (UniProt P30305); assay: Inhibition of Cdc25B (unknown origin) at 5 ug/ml
T2 sequence (whole entry): T1 sequence (P30305 whole entry)

[3] = target: T3, Tyrosine-protein phosphatase non-receptor type 1 (Homo sapiens, UniProt P18031); assay: Inhibition of PTP1B (unknown origin)
T3 sequence (P18031 whole entry): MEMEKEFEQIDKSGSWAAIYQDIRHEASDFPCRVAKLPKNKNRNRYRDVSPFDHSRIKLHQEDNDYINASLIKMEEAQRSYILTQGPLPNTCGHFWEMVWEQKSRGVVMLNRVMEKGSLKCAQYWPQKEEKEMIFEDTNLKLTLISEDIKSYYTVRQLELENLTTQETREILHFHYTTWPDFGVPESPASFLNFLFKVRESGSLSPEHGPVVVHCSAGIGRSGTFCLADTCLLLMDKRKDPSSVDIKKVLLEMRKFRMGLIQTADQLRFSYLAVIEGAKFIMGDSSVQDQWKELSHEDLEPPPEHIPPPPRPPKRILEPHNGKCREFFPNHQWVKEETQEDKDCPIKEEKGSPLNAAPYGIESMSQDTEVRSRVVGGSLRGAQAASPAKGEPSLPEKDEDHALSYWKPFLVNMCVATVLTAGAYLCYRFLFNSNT

[4] = target: Receptor-type tyrosine-protein phosphatase F (Homo sapiens, UniProt P10586); assay: Inhibition of LAR (unknown origin)
Receptor-type tyrosine-protein phosphatase F, sequence (P10586 whole entry): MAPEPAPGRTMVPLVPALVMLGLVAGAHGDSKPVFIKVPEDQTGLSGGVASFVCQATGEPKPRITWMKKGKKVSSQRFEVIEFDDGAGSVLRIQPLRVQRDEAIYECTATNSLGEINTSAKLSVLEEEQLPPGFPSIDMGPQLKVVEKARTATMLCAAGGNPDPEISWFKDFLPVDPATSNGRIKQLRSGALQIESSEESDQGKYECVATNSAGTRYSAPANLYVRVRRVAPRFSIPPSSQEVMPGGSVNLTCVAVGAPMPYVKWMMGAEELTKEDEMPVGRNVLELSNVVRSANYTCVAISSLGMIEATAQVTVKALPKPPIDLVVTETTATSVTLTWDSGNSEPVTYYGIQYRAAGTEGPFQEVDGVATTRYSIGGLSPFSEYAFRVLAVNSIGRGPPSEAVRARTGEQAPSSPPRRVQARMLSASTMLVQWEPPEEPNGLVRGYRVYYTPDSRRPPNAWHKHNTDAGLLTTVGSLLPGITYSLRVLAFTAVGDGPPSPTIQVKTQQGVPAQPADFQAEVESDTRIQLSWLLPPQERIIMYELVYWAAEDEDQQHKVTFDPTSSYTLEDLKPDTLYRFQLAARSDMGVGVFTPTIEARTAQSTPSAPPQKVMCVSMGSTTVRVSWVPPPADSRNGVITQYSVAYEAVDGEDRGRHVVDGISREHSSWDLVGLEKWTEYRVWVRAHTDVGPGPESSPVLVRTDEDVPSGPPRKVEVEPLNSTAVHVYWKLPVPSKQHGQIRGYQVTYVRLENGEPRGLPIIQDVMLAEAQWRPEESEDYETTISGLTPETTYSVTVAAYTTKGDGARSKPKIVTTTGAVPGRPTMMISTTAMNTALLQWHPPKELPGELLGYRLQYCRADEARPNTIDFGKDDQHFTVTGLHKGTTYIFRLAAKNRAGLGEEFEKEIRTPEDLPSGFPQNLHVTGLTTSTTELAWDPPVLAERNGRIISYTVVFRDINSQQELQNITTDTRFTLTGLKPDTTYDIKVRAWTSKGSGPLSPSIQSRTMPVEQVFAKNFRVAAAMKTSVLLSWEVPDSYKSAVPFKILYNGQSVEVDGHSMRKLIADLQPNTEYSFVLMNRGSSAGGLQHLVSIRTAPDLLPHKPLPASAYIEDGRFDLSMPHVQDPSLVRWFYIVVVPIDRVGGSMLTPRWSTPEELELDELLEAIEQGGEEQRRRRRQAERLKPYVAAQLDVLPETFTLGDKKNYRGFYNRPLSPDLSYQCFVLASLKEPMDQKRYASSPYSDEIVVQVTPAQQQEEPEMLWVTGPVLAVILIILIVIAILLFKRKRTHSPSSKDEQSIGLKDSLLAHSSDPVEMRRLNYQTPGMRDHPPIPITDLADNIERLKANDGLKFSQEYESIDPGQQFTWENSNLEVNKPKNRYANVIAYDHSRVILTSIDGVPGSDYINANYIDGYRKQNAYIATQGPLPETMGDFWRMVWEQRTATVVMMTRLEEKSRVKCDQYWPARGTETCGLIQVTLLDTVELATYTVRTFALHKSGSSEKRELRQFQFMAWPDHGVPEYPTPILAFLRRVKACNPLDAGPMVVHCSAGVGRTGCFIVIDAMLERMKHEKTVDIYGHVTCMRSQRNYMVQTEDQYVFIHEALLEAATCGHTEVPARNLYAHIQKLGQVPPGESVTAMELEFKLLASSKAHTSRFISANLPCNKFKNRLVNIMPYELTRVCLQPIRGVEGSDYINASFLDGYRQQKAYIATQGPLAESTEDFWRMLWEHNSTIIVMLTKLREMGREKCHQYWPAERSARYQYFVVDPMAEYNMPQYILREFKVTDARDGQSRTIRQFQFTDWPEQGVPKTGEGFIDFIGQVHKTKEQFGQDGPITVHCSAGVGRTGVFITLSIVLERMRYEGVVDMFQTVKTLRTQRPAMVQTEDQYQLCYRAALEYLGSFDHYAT

[5] = target: Tyrosine-protein phosphatase non-receptor type 6 (Homo sapiens, UniProt P29350); assay: Inhibition of SHP1 (unknown origin)
Tyrosine-protein phosphatase non-receptor type 6, sequence (P29350 whole entry): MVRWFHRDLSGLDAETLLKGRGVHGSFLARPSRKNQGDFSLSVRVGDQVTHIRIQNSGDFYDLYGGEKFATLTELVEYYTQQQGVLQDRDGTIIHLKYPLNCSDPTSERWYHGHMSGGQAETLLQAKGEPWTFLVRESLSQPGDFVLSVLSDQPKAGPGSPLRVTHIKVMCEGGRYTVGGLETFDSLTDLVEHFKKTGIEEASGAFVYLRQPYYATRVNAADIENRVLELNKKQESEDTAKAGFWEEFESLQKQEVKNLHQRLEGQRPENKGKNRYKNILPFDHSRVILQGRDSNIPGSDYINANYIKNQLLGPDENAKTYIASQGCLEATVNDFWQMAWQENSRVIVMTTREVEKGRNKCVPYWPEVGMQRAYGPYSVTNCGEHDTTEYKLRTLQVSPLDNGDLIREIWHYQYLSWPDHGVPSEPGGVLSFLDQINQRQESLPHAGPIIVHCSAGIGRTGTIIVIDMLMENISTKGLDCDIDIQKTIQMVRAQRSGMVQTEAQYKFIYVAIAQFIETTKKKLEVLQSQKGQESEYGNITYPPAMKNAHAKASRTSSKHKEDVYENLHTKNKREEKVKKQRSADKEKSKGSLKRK

[6] = target: T4, Tyrosine-protein phosphatase non-receptor type 1 (Homo sapiens) (UniProt P18031); assay: Inhibition of PTP1B (unknown origin) at 5 ug/ml
T4 sequence (whole entry): T3 sequence (P18031 whole entry)

[7] = target: T5, Tyrosine-protein phosphatase non-receptor type 2 (Homo sapiens, UniProt P17706); assay: Inhibition of TCPTP (unknown origin)
T5 sequence (P17706 whole entry): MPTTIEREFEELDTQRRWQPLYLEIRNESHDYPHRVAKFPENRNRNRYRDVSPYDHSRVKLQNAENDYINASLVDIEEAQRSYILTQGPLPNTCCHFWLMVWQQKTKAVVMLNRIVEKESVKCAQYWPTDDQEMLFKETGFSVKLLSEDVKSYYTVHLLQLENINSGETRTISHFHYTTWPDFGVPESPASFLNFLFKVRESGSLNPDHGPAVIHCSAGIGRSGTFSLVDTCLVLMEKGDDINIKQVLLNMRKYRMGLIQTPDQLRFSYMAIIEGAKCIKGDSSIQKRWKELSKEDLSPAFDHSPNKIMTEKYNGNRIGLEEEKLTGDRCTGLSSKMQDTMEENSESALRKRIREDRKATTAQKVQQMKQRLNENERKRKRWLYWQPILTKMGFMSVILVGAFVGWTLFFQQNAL

[8] = target: T6, Tyrosine-protein phosphatase non-receptor type 11 (Homo sapiens, UniProt Q06124); assay: Inhibition of SHP2 (unknown origin)
T6 sequence (Q06124 whole entry): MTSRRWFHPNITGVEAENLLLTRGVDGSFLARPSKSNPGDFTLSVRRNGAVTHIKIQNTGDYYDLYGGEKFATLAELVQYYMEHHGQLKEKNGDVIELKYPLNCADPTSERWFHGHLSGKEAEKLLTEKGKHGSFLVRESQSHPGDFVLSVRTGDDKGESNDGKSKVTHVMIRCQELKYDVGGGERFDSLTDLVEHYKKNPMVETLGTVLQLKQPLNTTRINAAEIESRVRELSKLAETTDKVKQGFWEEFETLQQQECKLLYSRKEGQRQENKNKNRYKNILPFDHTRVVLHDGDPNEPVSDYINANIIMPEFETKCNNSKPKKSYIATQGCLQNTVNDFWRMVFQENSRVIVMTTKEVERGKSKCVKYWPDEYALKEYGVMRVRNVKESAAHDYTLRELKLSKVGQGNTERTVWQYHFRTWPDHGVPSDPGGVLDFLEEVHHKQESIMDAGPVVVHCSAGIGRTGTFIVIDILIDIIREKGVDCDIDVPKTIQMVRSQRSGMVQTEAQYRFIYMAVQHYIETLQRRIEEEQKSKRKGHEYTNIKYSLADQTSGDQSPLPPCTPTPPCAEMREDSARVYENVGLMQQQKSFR

[9] = target: T4, Tyrosine-protein phosphatase non-receptor type 1 (Homo sapiens); assay: Mixed inhibition of PTP1B (unknown origin) by Lineweaver-Burk plot

Row | SMILES | pIC50 [1] | inhibition [2] [%] | pIC50 [3] | IC50 [4] | IC50 [5] | inhibition [6] [%] | IC50 [7] | IC50 [8] | inhibition [9]
1 | O=C(Nc1nnc(-c2ccc(Oc3ccc([N+](=O)[O-])cc3)cc2)s1)c1ccco1 | 5.19 | 87.7 | 4.95 | Not Active | Not Active | 75.1 | Not Active | Not Active | 
2 | O=C(Nc1nnc(-c2ccc(Oc3ccc([N+](=O)[O-])cc3[N+](=O)[O-])cc2)s1)c1cccc([N+](=O)[O-])c1 | 5.60 | 99.2 | 5.57 | Not Active | Not Active | 85.6 | Not Active | Not Active | Active
3 | O=C(Nc1nnc(-c2ccc(Oc3ccc([N+](=O)[O-])cc3[N+](=O)[O-])cc2)s1)c1ccccc1[N+](=O)[O-] | 4.80 | 88.3 | 5.09 | Not Active | Not Active | 87.4 | Not Active | Not Active | 
4 | O=C(Nc1nnc(-c2ccc(Oc3ccc([N+](=O)[O-])cc3[N+](=O)[O-])cc2)s1)c1ccc([N+](=O)[O-])cc1 | 5.03 | 97.7 | 4.80 | Not Active | Not Active | 81.8 | Not Active | Not Active | 
5 | O=C(Nc1nnc(-c2ccc(Oc3ccc([N+](=O)[O-])cc3)cc2)s1)c1ccccc1 | 5.11 | 86.3 | 5.00 | Not Active | Not Active | 79.6 | Not Active | Not Active | 
6 | O=C(Nc1nnc(-c2ccc(Oc3ccc([N+](=O)[O-])cc3)cc2)s1)c1ccc([N+](=O)[O-])cc1 | 5.07 | 96.4 | 5.44 | Not Active | Not Active | 95.2 | Not Active | Not Active | 
7 | O=C(Nc1nnc(-c2ccc(Oc3ccc([N+](=O)[O-])cc3)cc2)s1)c1ccccc1F | 4.99 | 63.6 | 4.77 | Not Active | Not Active | 60.6 | Not Active | Not Active | 

Continued, in another order:

Row | pIC50 [1] | inhibition [2] [%] | pIC50 [3] | IC50 [4] | IC50 [5] | inhibition [6] [%] | IC50 [7] | IC50 [8] | SMILES | inhibition [9]
8 | 5.40 | 84.5 | 5.28 | Not Active | Not Active | 84.2 | Not Active | Not Active | COc1cc(C(=O)Nc2nnc(-c3ccc(Oc4ccc([N+](=O)[O-])cc4[N+](=O)[O-])cc3)s2)cc(OC)c1OC | 
9 | 5.48 | 91.7 | 5.39 | Not Active | Not Active | 90.9 | Not Active | Not Active | O=C(Cc1ccccc1)Nc1nnc(-c2ccc(Oc3ccc([N+](=O)[O-])cc3[N+](=O)[O-])cc2)s1 | 
10 | 5.25 | 88.9 | 5.22 | Not Active | Not Active | 82.1 | Not Active | Not Active | O=C(Cc1cccc2ccccc12)Nc1nnc(-c2ccc(Oc3ccc([N+](=O)[O-])cc3[N+](=O)[O-])cc2)s1 | 
11 | 5.27 | 99.3 | 5.45 | Not Active | Not Active | 88.4 | Not Active | Not Active | O=C(Nc1nnc(-c2ccc(Oc3ccc([N+](=O)[O-])cc3[N+](=O)[O-])cc2)s1)c1ccccc1F | 
